The test system of test [1] is Plasmodium falciparum. In words: In vitro antimalarial activity against drug-resistant Plasmodium falciparum D6. The test is classed as functional, organism-based.
For test [2], the system named is Plasmodium falciparum. In words: In vitro antimalarial activity against drug-resistant Plasmodium falciparum W-2. The test is classed as functional, organism-based.

Values after ≈ are worked out from the molar mass of the structure shown.

Usually IC50 stands for the concentration at which inhibition is half-maximal. Low readings indicate greater potency, high ones weaker potency.

In the case of `C=CC[C@H]1O[C@@H]2O[C@@]3(C)CC[C@H]4[C@H](C)CC[C@@H]([C@H]1C)[C@@]24OO3`, the results for the IC50 in the test on Plasmodium falciparum [1] and with Plasmodium falciparum [2] were 1.07 ng/mL (≈ 3.47 nM) and 0.59 ng/mL (≈ 1.91 nM), respectively.

Turning to `CC[C@H]1O[C@@H]2O[C@@]3(C)CC[C@H]4[C@H](C)CC[C@@H]([C@H]1C)[C@@]24OO3`, the IC50 in the test with Plasmodium falciparum [1] was 1.09 ng/mL (≈ 3.68 nM); in the test on Plasmodium falciparum [2] it was 0.29 ng/mL (≈ 0.978 nM).

Consider `CCC[C@H]1O[C@@H]2O[C@@]3(C)CC[C@H]4[C@H](C)CC[C@@H]([C@H]1C)[C@@]24OO3`, for which the figures for the concentration for half-maximal inhibition (IC50) in the test with Plasmodium falciparum [1] and with Plasmodium falciparum [2] were 0.41 ng/mL (≈ 1.32 nM) and 0.16 ng/mL (≈ 0.515 nM), respectively.

On to `C[C@H]1[C@@H](CCO)O[C@@H]2OC3(C)CC[C@H]4[C@H](C)CC[C@@H]1[C@@]24OO3` (single isomer, unassigned), for which the concentration for half-maximal inhibition (IC50) worked out at 2.04 ng/mL (≈ 6.53 nM) in the test with Plasmodium falciparum [1] and 0.59 ng/mL (≈ 1.89 nM) in the test with Plasmodium falciparum [2].

As for `C[C@@H]1CC[C@H]2[C@@H](C)CO[C@@H]3OC4(C)CC[C@@H]1[C@]32OO4` (single isomer, unassigned) [DEOXOARTEMISININ], the IC50 with Plasmodium falciparum [1] worked out at 1.11 ng/mL (≈ 4.14 nM); in the test with Plasmodium falciparum [2], 0.48 ng/mL (≈ 1.79 nM).

Regarding `C[C@@H]1CC[C@H]2[C@@H](C)C(=O)O[C@@H]3O[C@@]4(C)CC[C@@H]1[C@]32OO4` [ARTEMISININ], the 50% inhibitory concentration (IC50) in the test on Plasmodium falciparum [1] was determined as 0.86 ng/mL (≈ 3.05 nM); in the test on Plasmodium falciparum [2] it was 0.32 ng/mL (≈ 1.13 nM).

Take `CCO[C@H]1O[C@@H]2O[C@@]3(C)CC[C@H]4[C@H](C)CC[C@@H]([C@H]1C)[C@@]24OO3` [ARTEMOTIL]: the IC50 in the test with Plasmodium falciparum [1] was determined as 0.34 ng/mL (≈ 1.09 nM); in the test on Plasmodium falciparum [2], 0.18 ng/mL (≈ 0.576 nM).

Values taken from ChEMBL document CHEMBL1128594, “Synthesis and antimalarial activities of 12 beta-allyldeoxoartemisinin and its derivatives” (J Med Chem, 1995).
